Reference: ChEMBL document CHEMBL1153748 (J Med Chem, 2010)

How the values were obtained:
[1] = biological target: T1, Peroxisome proliferator-activated receptor alpha (Homo sapiens, UniProt Q07869); assay: Agonist activity at human PPARalpha ligand binding domain expressed in human 293T cells co-transfected with Gal4-DBD by luciferase transactivation assay; format: cell-based; settings: read-out: EC50
T1 sequence (Q07869 whole entry): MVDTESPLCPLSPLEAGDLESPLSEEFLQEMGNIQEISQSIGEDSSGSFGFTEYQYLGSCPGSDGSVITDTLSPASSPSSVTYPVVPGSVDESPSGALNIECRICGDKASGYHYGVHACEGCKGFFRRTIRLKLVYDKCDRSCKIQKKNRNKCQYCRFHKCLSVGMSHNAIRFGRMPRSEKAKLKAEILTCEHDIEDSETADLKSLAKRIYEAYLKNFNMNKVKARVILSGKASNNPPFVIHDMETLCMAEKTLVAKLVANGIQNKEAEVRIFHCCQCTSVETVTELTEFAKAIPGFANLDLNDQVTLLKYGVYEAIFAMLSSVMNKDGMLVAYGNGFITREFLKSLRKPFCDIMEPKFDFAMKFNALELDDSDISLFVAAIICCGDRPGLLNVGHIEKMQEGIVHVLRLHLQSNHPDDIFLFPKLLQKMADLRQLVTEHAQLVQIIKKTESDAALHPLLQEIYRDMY

[2] = biological target: T2, Peroxisome proliferator-activated receptor gamma (Homo sapiens, UniProt P37231); format: cell-based, 293T; settings: read-out: EC50
T2 sequence (P37231 whole entry): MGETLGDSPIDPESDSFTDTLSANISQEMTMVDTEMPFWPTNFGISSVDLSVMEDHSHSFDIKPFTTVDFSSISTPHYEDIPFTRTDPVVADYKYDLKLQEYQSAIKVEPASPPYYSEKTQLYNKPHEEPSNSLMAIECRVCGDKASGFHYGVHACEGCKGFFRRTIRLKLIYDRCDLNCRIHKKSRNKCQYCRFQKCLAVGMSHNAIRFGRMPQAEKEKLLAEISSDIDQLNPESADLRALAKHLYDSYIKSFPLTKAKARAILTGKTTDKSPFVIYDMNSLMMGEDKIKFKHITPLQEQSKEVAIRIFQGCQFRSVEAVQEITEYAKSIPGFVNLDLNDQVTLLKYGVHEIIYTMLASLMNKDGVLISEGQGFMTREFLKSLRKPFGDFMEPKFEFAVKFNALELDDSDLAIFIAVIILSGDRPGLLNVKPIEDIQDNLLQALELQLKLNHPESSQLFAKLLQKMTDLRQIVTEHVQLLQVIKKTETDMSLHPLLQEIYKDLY

[3] = biological target: T3, Peroxisome proliferator-activated receptor delta (Homo sapiens, UniProt Q03181)
T3 sequence (Q03181 whole entry): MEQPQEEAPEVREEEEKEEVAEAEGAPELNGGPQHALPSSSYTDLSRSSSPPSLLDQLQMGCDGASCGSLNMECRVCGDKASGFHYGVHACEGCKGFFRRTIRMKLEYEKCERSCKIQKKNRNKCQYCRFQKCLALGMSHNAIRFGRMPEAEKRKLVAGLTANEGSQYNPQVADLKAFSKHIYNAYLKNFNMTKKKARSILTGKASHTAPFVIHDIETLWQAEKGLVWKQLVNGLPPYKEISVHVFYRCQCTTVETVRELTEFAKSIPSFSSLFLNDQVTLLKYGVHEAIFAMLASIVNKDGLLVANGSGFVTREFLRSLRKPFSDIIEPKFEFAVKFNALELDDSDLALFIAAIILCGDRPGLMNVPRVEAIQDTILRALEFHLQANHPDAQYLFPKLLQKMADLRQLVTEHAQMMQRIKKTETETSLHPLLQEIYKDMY

| SMILES | EC50 [1] [µM] | EC50 [2] [µM] | EC50 [3] [µM] |
| --- | --- | --- | --- |
| CCN(CC)c1ccc(-c2nc(COc3ccc(OCC(=O)O)c(C)c3)sc2-c2ccc(OC(F)(F)F)cc2)cc1 | > 10 | > 10 | 0.03 |
| COc1ccc(-c2nc(COc3ccc(OCC(=O)O)c(C)c3)oc2-c2ccc(OC(F)(F)F)cc2)cc1 | > 10 | > 10 | 0.01 |
| Cc1cc(OCc2nc(-c3ccc4[nH]c(=O)oc4c3)c(-c3ccc(OC(F)(F)F)cc3)s2)ccc1OCC(=O)O | > 10 | > 10 | 0.544 |
| COc1ccc(-c2nc(COc3ccc4c(ccn4CC(=O)O)c3)sc2-c2ccc(C(F)(F)F)cc2)cc1 | > 10 | > 10 | 0.34 |
| COc1ccc(-c2nc(COc3ccc(OCC(=O)O)cc3)sc2-c2ccc(C(F)(F)F)cc2)cc1 | > 10 | > 10 | 0.93 |
| COc1ccc(-c2nc(COc3ccc(CC(=O)O)cc3Cl)sc2-c2ccc(C(F)(F)F)cc2)cc1 | > 10 | > 10 | 0.48 |
| Cc1cc(OCc2nc(-c3cncnc3)c(-c3ccc(OC(F)(F)F)cc3)s2)ccc1OCC(=O)O | > 10 | > 10 | 0.059 |
| COc1ccc(-c2nc(COc3ccc(OC(C)(C)C(=O)O)cc3)sc2-c2ccc(C(F)(F)F)cc2)cc1 | > 10 | > 10 | 1.2 |
| COc1ccc(-c2nc(CSc3ccc(OCC(=O)O)c(C)c3)sc2-c2ccc(C(F)(F)F)cc2)cc1 | > 10 | > 10 | 0.23 |
| COc1ccc(-c2nc(CSc3ccc(OCC(=O)O)c(C)c3)oc2-c2ccc(OC)cc2)cc1 | > 10 | > 10 | 0.66 |
| COc1ccc(-c2nc(COc3ccc(CCC(=O)O)c(C)c3)sc2-c2ccc(C(F)(F)F)cc2)cc1 | > 10 | > 10 | 0.14 |
| Cc1cc(OCc2nc(-c3cccnc3)c(-c3ccc(OC(F)(F)F)cc3)s2)ccc1OCC(=O)O | > 10 | > 10 | 0.068 |
| Cc1cc(OCc2nc(-c3ccc(C(F)(F)F)cc3)c(C)s2)ccc1OCC(=O)O | > 10 | > 10 | 2.4 |
| Cc1cc(OCc2nc(-c3ccc(Cl)cc3)c(-c3ccccc3)s2)ccc1OCC(=O)O | > 10 | > 10 | 5.9 |
| COc1ncc(-c2nc(COc3ccc(OCC(=O)O)c(C)c3)sc2-c2ccc(OC(F)(F)F)cc2)cn1 | > 10 | > 10 | 0.034 |
| COc1ncc(-c2nc(COc3ccc(OCC(=O)O)c(C)c3)oc2-c2ccc(OC(F)(F)F)cc2)cn1 | > 10 | > 10 | 0.014 |
| COc1ccc(-c2nc(COc3ccc4c(CC(=O)O)cccc4c3)sc2-c2ccc(C(F)(F)F)cc2)cc1 | > 10 | > 10 | 0.74 |
| COc1ccc(-c2nc(COc3ccc(OCC(=O)O)c(C)c3)oc2-c2ccc(C(F)(F)F)cc2)cc1 | > 10 | > 10 | 0.01 |
| Cc1cc(OCc2nc(-c3ccccc3)c(-c3ccccc3)s2)ccc1OCC(=O)O | > 10 | > 10 | > 10 |
| COc1ccc(-c2nc(COc3ccc(OCC(=O)O)c(C)c3)sc2-c2cccc3ccccc23)cc1 | > 10 | > 10 | > 10 |
| COc1ccc(-c2nc(COc3ccc(OCC(=O)O)c(C)c3)oc2-c2cnc3ccccc3c2)cc1 | > 10 | > 10 | 0.11 |
| COc1ccc(-c2nc(COc3ccc4oc(C(=O)O)cc4c3)sc2-c2ccc(C(F)(F)F)cc2)cc1 | > 10 | > 10 | > 10 |
| Cc1cc(OCc2nc(-c3ccc(N4CCOCC4)nc3)c(-c3ccc(OC(F)(F)F)cc3)s2)ccc1OCC(=O)O | > 10 | > 10 | 0.018 |
| Cc1cc(OCc2nc(-c3ccc(OCC(C)C)cc3)c(-c3ccc(OC(F)(F)F)cc3)s2)ccc1OCC(=O)O | > 10 | > 10 | 0.063 |

| SMILES | EC50 [1] [µM] | EC50 [2] [µM] | EC50 [3] [µM] |
| --- | --- | --- | --- |
| COc1ccc(-c2nc(COc3ccc(CC(=O)O)c(C)c3)sc2-c2ccc(C(F)(F)F)cc2)cc1 | > 10 | > 10 | 0.14 |
| Cc1cc(OCc2nc(-c3ccc4c(c3)OCO4)c(-c3ccc(OC(F)(F)F)cc3)s2)ccc1OCC(=O)O | > 10 | > 10 | 0.031 |
| COc1ccc(-c2nc(COc3ccc(CC(=O)O)cc3)sc2-c2ccc(C(F)(F)F)cc2)cc1 | > 10 | > 10 | 1.3 |
| COc1ccc(-c2nc(COc3ccccc3OCC(=O)O)sc2-c2ccc(C(F)(F)F)cc2)cc1 | > 10 | > 10 | > 10 |
| CCCc1cc(OCc2nc(-c3ccc(OC)cc3)c(-c3ccc(C(F)(F)F)cc3)s2)ccc1OCC(=O)O | > 10 | > 10 | 0.02 |
| Cc1cc(OCc2nc(-c3ccc(N4CCCC4)cc3)c(-c3ccc(OC(F)(F)F)cc3)s2)ccc1OCC(=O)O | > 10 | > 10 | 0.41 |
| COc1ccc(-c2nc(COc3ccc(OCC(=O)O)c(C)c3)sc2-c2cc3ccccc3o2)cc1 | > 10 | > 10 | 0.05 |
| Cc1ccc(-c2sc(COc3ccc(OCC(=O)O)c(C)c3)nc2-c2cccnc2)cc1 | > 10 | > 10 | 0.19 |
| Cc1cc(OCc2nc(-c3cncnc3)c(-c3ccc(OC(F)(F)F)cc3)o2)ccc1OCC(=O)O | > 10 | > 10 | 0.055 |
| COc1ccc(-c2nc(COc3ccc(OCC(=O)O)c(C)c3)oc2-c2ccc(OC)cc2)cc1 | > 10 | > 10 | 0.12 |
| COc1ccc(-c2nc(COc3ccc(OCC(=O)O)c(C)c3)sc2-c2ccc(OC)cc2)cc1 | > 10 | > 10 | 0.1 |
| COc1ccc(-c2nc(COc3ccc(OCC(=O)O)c(C)c3)sc2-c2ccc(Cl)nc2)cc1 | > 10 | > 10 | 0.88 |
| COc1ccc(-c2nc(COc3cccc(OCC(=O)O)c3)sc2-c2ccc(C(F)(F)F)cc2)cc1 | > 10 | > 10 | > 10 |
| COc1ccc(-c2nc(COc3ccc(OCC(=O)O)c(C)c3)sc2-c2ccc3ccccc3c2)cc1 | > 10 | > 10 | 0.02 |
| Cc1cc(OC/C=C(\C#Cc2ccc(C(F)(F)F)cc2)c2ccc(Br)cc2)ccc1OCC(=O)O | > 10 | > 10 | 0.13 |
| Cc1cc(OCc2nc(-c3ccc(NS(C)(=O)=O)cc3)c(-c3ccc(OC(F)(F)F)cc3)s2)ccc1OCC(=O)O | > 10 | > 10 | 0.775 |
| O=C(O)Cc1cccc(-c2noc(-c3ccccc3)c2C(=O)NCCOc2cc(Cl)cc(Cl)c2)c1 | > 10 | > 10 | 0.07 |
| COc1ccc(-c2nc(COc3ccc(OCC(=O)O)c(C)c3)sc2-c2ccc(C(F)(F)F)cc2)cc1 | > 10 | > 10 | 0.04 |
| COc1ccc(-c2nc(COc3ccc(OCC(=O)O)c(C)c3)sc2-c2ccc(SC(F)(F)F)cc2)cc1 | > 10 | > 10 | 0.15 |
| Cc1cc(OCc2nc(-c3ccc4c(c3)OCCO4)c(-c3ccc(OC(F)(F)F)cc3)s2)ccc1OCC(=O)O | > 10 | > 10 | 0.017 |
| COc1ccc(-c2nc(COc3ccc(OCC(=O)O)c(C)c3)sc2-c2ccc(Cl)cc2)cc1 | > 10 | > 10 | 0.06 |
| CCOc1ccc(-c2nc(COc3ccc(OCC(=O)O)c(C)c3)sc2-c2ccc(OC(F)(F)F)cc2)cc1 | > 10 | > 10 | 0.032 |
| COc1ccc(-c2nc(Sc3ccc(OCC(=O)O)c(C)c3)sc2-c2ccc(OC)cc2)cc1 | > 10 | > 10 | 1.41 |
